Experimental data from patent publication US11976058B2, “Aromatic derivatives, preparation methods, and medical uses thereof” (Bioardis LLC, priority 2019, dated 2024).
Read-outs that look alike come from different tables or passages of the source.

Tests used:
[1] = molecular target: T1, human FGFR4 (Homo sapiens, UniProt P22455); test: FGFR4 enzymatic assay (HTRF KinEASE-TK); format: biochemical; details: wild-type human FGFR4 cytoplasmic domain (460-802), GST-tag; 60 min preincubation at 25° C.; ATP 200 μM; read-out: Potency (IC50), FGFR4 enzymatic assay
T1 construct: human FGFR4 cytoplasmic domain (460-802); GST (N); purchased Carna Biosciences 08-136
T1 sequence (P22455 460-802): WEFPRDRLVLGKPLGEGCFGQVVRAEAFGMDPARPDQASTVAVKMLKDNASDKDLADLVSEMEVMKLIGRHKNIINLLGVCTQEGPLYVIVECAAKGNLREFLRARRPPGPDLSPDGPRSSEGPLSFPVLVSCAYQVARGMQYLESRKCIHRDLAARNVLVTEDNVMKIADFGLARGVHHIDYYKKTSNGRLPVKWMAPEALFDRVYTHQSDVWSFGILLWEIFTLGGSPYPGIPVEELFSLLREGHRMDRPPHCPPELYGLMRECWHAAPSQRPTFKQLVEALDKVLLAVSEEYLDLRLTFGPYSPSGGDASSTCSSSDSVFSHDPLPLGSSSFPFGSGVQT
Experimental: The ability of compounds to inhibit human FGFR4 tyrosine kinase activities was determined using a commercially available HTRF® KinEASE™-TK kit (CISBIO, Cat #62TK0PEC) according to the manufacturer's protocol. Wild-type human FGFR4 cytoplasmic domain (460-802) with N-terminal GST-tag was purchased from Carna Biosciences (Carna, Cat #08-136) and used in the kinase enzymatic assay. This assay, run in a 384-well plate format, is a generic method for measuring tyrosine kinase activities using one substrate and a universal detection system. It involves two steps: (1) Enzymatic step: the biotin labeled TK Substrate is incubated with the kinase and then ATP is added to start the enzymatic reaction; during this step, FGFR4 will phosphorylate the TK Substrate-biotin. (2) Detection step: The TK-Antibody labeled with Eu^3+-Cryptate can recognize the phosphorylated TK Substrate-biotin. When the streptavidin-XL665 conjugate binds the biotin, a FRET signal will be detected. Briefly, human FGFR4 (0.25 μg/ml) in the enzymatic buffer solutions (250 mM HEPES, pH7.0, 0.1% NaN3, 0.05% BSA, 0.5 mM Orthovanadate) were mixed with various concentrations of the test compound (dissolved in 100% DMSO). These solutions were incubated for 60 min at 25° C., and subsequently a mixture of substrate peptide and ATP was added with the final peptide and ATP concentrations at 0.3 μM and 200 μM respectively. The final reaction mixture of enzyme-substrate-ATP-compound was incubated for 40 min at 37° C. Meanwhile the detection mixture containing the TK-antibody and Streptavidin-XL665 diluted in the detection buffer (50 mM HEPES, pH7.0, with additives) was prepared, and added to the reaction mixture at final concentrations of 25 nM and 18.5 nM respectively. After incubation for 60 min at 25° C., the FRET signal of the final solution was measured at 665 nm and 612 nm emissions on a TECAN Spark 10M instrument (TECAN). The percent (%) inhibition at each concentration of a compound was calculated relative to the FRET signal in the Max and Min control wells contained within each assay plate. The Max control wells contained enzyme and substrate as 0% inhibition, and the Min control wells only contained substrate without enzyme as 100% inhibition. The concentrations and percent inhibition values for a test compound are plotted and the concentration of the compound required to achieve 50% inhibition (IC50) was determined with a four-parameter logistic dose response equation. Dose-response curves were generated using Prism (GraphPad Software, La Jolla, CA, US) to calculate IC50 values for each compound tested.

[2] = test system: Hep3B cells; test: Cell-based FGFR4 proliferation assay (CellTiter-Glo); details: incubated with test compound for 3 days, CellTiter-Glo luminescence, read-out: Potency (IC50), Hep3B cell proliferation
Experimental: Hepatocellular carcinoma cell line Hep3B (ATCC, Cat #HB-8064) were cultured at 37° C., 5% CO2 in ATCC-formulated Eagle's Minimum Essential Medium supplemented with 10% fetal bovine serum; 1% Penicillin-Streptomycin.
Cell line: Hepatocellular carcinoma cell line Hep3B (ATCC, Cat #HB-8064).
In this assay, Hep3B cells are seeded in 384-well microplates, and after exposure to experimental compounds for […], CellTiter-Glo® Luminescent Cell Viability Assay kit (Promega, Cat #G7572) are used to determine the number of viable cells in the culture based on quantitation of the ATP present, which signals the presence of metabolically active cells. Luminescent signal is proportional to the amount of ATP present. The amount of ATP is directly proportional to the number of cells present in the culture, allowing drug-induced effects on cell proliferation to be measured.
Hep3B cells were plated at a density of 4×10^4/ml cells in a 384-well black/clear microplate with 20 μL per well of MEM Medium (Gibco Cat. #11095-080) supplemented with 10% fetal bovine serum; 1% Penicillin-Streptomycin, and cultured overnight at 37° C., 5% CO2. Various concentrations of the test compound (dissolved in 100% DMSO) were added to the wells of the cell plate. The cells were incubated with the test compound for 3 days at 37° C., 5% CO2. 5 μL of CellTiter-Glo® Reagent was added to each well of the cell plate. The cell plate was incubated for 5 min at 25° C. on a plate shaker (IKA MTS 2/4) at 300 rpm. Luminescence signals were read on a TECAN Spark 10M instrument (TECAN). […] The concentrations and percent inhibition values for a test compound were plotted and the concentration of the compound required to achieve 50% inhibition (IC50) is determined with a four-parameter logistic dose response equation. Dose-response curves were generated using Prism (GraphPad Software, La Jolla, CA, US) to calculate IC50 values for each compound tested.

IC50 [1] [nM] | IC50 ([2]; Homo sapiens, Hep3B, 72 h) [nM] | IC50 [2] [nM] | Structure (SMILES)
> 100 | > 100 | – | C=CC(=O)Nc1ncn(C)c1-c1n[nH]c2c1CCC(c1c(F)c(OC)cc(OC)c1F)C2 (single isomer, unassigned) [Compound S3-P1, N-(5-(6-(2,6-Difluoro-3,5-dimethoxyphenyl)-4,5,6,7-tetrahydro-1H-indazol-3-yl)-1-methyl-1H-imidazol-4-yl) Acrylamide]
> 100 | > 100 | – | C=CC(=O)Nc1cnn(C)c1-c1n[nH]c2c1COC(c1c(F)c(OC)cc(OC)c1F)C2 (single isomer, unassigned) [Compound S6-P1, N-(5-(6-(2,6-difluoro-3,5-dimethoxyphenyl)-1,4,6,7-tetrahydropyrano[4,3-c]pyrazol-3-yl)-1-methyl-1H-pyrazol-4-yl) acrylamide]
< 10 | – | < 10 | C=CC(=O)Nc1c[nH]nc1-c1n[nH]c2c1CCC(c1c(F)c(OC)cc(OC)c1F)C2 (single isomer, unassigned) [Compound S15-P2, N-(3-(6-(2,6-difluoro-3,5-dimethoxyphenyl)-4,5,6,7-tetrahydro-1H-indazol-3-yl)-1H-pyrazol-4-yl)acrylamide]
< 10 | – | 10 to 100 | [2H]C([2H])([2H])n1ncc(NC(=O)C=C)c1-c1n[nH]c2c1CCC(c1c(F)c(OC)cc(OC)c1F)C2 (single isomer, unassigned) [Compound S16-P2, N-(5-(6-(2,6-difluoro-3,5-dimethoxyphenyl)-4,5,6,7-tetrahydro-1H-indazol-3-yl)-1-(methyl-d3)-1H-pyrazol-4-yl)acrylamide]
> 100 | – | – | C=CC(=O)N[C@H]1COC[C@H]1c1n[nH]c2c1CC[C@@H](c1c(Cl)c(OC)cc(OC)c1Cl)C2 [Compound S10-P1, N-((3R,4R)-4-((R)-6-(2,6-dichloro-3,5-dimethoxyphenyl)-4,5,6,7-tetrahydro-1H-indazol-3-yl)tetrahydrofuran-3-yl)acrylamide]
> 100 | – | – | C=CC(=O)N[C@@H]1COC[C@@H]1c1n[nH]c2c1CC[C@@H](c1c(Cl)c(OC)cc(OC)c1Cl)C2 [Compound S10-P2, N-((3S,4S)-4-((R)-6-(2,6-dichloro-3,5-dimethoxyphenyl)-4,5,6,7-tetrahydro-1H-indazol-3-yl)tetrahydrofuran-3-yl)acrylamide]
> 100 | – | – | C=CC(=O)N[C@@H]1COC[C@@H]1c1n[nH]c2c1CC[C@H](c1c(Cl)c(OC)cc(OC)c1Cl)C2 [Compound S10-P3, N-((3S,4S)-4-((S)-6-(2,6-dichloro-3,5-dimethoxyphenyl)-4,5,6,7-tetrahydro-1H-indazol-3-yl)tetrahydrofuran-3-yl)acrylamide]
> 100 | – | – | C=CC(=O)N[C@H]1COC[C@H]1c1n[nH]c2c1CC[C@H](c1c(Cl)c(OC)cc(OC)c1Cl)C2 [Compound S10-P4, N-((3R,4R)-4-((S)-6-(2,6-dichloro-3,5-dimethoxyphenyl)-4,5,6,7-tetrahydro-1H-indazol-3-yl)tetrahydrofuran-3-yl)acrylamide]
> 100 | – | – | C=CC(=O)N[C@H]1COC[C@H]1c1n[nH]c2c1CC[C@H](c1c(F)c(OC)cc(OC)c1F)C2 [Compound S13-P1, N-((3R,4R)-4-((S)-6-(2,6-difluoro-3,5-dimethoxyphenyl)-4,5,6,7-tetrahydro-1H-indazol-3-yl)tetrahydrofuran-3-yl)acrylamide]
> 100 | – | – | C=CC(=O)N[C@@H]1COC[C@@H]1c1n[nH]c2c1CC[C@H](c1c(F)c(OC)cc(OC)c1F)C2 [Compound S13-P2, N-((3S,4S)-4-((S)-6-(2,6-difluoro-3,5-dimethoxyphenyl)-4,5,6,7-tetrahydro-1H-indazol-3-yl)tetrahydrofuran-3-yl)acrylamide]
> 100 | – | – | C=CC(=O)N[C@H]1COC[C@H]1c1n[nH]c2c1CC[C@H](c1cc(OC)cc(OC)c1F)C2 [Compound S13-P3, N-((3R,4R)-4-((S)-6-(2-fluoro-3,5-dimethoxyphenyl)-4,5,6,7-tetrahydro-1H-indazol-3-yl)tetrahydrofuran-3-yl)acrylamide]
> 100 | – | – | C=CC(=O)N[C@@H]1COC[C@@H]1c1n[nH]c2c1CC[C@H](c1cc(OC)cc(OC)c1F)C2 [Compound S13-P4, N-((3S,4S)-4-((S)-6-(2-fluoro-3,5-dimethoxyphenyl)-4,5,6,7-tetrahydro-1H-indazol-3-yl)tetrahydrofuran-3-yl)acrylamide]
> 100 | – | – | C=CC(=O)Nc1cnn(CC)c1-c1n[nH]c2c1CC[C@@H](c1cc(OC)cc(OC)c1F)C2 [Compound S14-P3, (R)—N-(1-ethyl-5-(6-(2-fluoro-3,5-dimethoxyphenyl)-4,5,6,7-tetrahydro-1H-indazol-3-yl)-1H-pyrazol-4-yl) acrylamide]
> 100 | – | – | COC(=O)/C=C/C(=O)Nc1cnn(C)c1-c1n[nH]c2c1CC[C@H](c1c(F)c(OC)cc(OC)c1F)C2 [Compound S22, methyl (S,E)-4-((5-(6-(2,6-difluoro-3,5-dimethoxyphenyl)-4,5,6,7-tetrahydro-1H-indazol-3-yl)-1-methyl-1H-pyrazol-4-yl)amino)-4-oxobut-2-enoate]
> 100 | – | – | COc1cc(OC)c(F)c([C@H]2CCc3c(-c4c(NC(=O)/C=C/C(=O)OC(C)C)cnn4C)n[nH]c3C2)c1F [Compound S23, isopropyl (S,E)-4-((5-(6-(2,6-difluoro-3,5-dimethoxyphenyl)-4,5,6,7-tetrahydro-1H-indazol-3-yl)-1-methyl-1H-pyrazol-4-yl)amino)-4-oxobut-2-enoate]
> 100 | – | – | COc1cc(OC)c(F)c([C@H]2CCc3c(-c4c(NC(=O)C5CO5)cnn4C)n[nH]c3C2)c1F (stereo partly drawn) [Compound S24, N-(5-((S)-6-(2,6-difluoro-3,5-dimethoxyphenyl)-4,5,6,7-tetrahydro-1H-indazol-3-yl)-1-methyl-1H-pyrazol-4-yl)oxirane-2-carboxamide]
< 10 | 10 to 100 | – | C=CC(=O)Nc1cn(CCN(C)C)nc1-c1n[nH]c2c1CCC[C@H](c1c(F)c(OC)cc(OC)c1F)C2 [Compound S31, (S)—N-(3-(7-(2,6-difluoro-3,5-dimethoxyphenyl)-1,4,5,6,7,8-hexahydrocyclohepta[c]pyrazol-3-yl)-1-(2-(dimethylamino)ethyl)-1H-pyrazol-4-yl)acrylamide]
< 10 | < 10 | – | C=CC(=O)Nc1cn(CCN(C)C)nc1-c1n[nH]c2c1CCC[C@@H](c1c(F)c(OC)cc(OC)c1F)C2 [Compound S32, (R)—N-(3-(7-(2,6-difluoro-3,5-dimethoxyphenyl)-1,4,5,6,7,8-hexahydrocyclohepta[c]pyrazol-3-yl)-1-(2-(dimethylamino)ethyl)-1H-pyrazol-4-yl)acrylamide]
